Results reported in article PMC12454493, “Insight on novel sulfamoylphenyl pyrazole derivatives as anticancer carbonic anhydrase inhibitors” (Molecular Diversity, 2024).

Key:
COLO 205 = assay: NCI-60 one-dose SRB screen (Colon Cancer); assay type: cell-based; conditions: Homo sapiens, single dose 10 µM, 48 h, read-out: Growth inhibition percent (GI %)
HT29 = assay: NCI-60 one-dose SRB screen (Colon Cancer); assay type: cell-based; conditions: Homo sapiens, HT-29, single dose 10 µM, 48 h, read-out: Growth inhibition percent (GI %)
HCC-2998 = assay: NCI-60 one-dose SRB screen (Colon Cancer); assay type: cell-based; conditions: Homo sapiens, single dose 10 µM, 48 h, read-out: Growth inhibition percent (GI %)
KM12 = assay: NCI-60 one-dose SRB screen (Colon Cancer); assay type: cell-based; conditions: Homo sapiens, single dose 10 µM, 48 h, read-out: Growth inhibition percent (GI %)
SW-620 = assay: NCI-60 one-dose SRB screen (Colon Cancer); assay type: cell-based; conditions: Homo sapiens, single dose 10 µM, 48 h, read-out: Growth inhibition percent (GI %)
HCT-15 = assay: NCI-60 one-dose SRB screen (Colon Cancer); assay type: cell-based; conditions: Homo sapiens, single dose 10 µM, 48 h, read-out: Growth inhibition percent (GI %)
HCT-116 = assay: NCI-60 one-dose SRB screen (Colon Cancer); assay type: cell-based; conditions: Homo sapiens, single dose 10 µM, 48 h, read-out: Growth inhibition percent (GI %)
T-47D = assay: NCI-60 one-dose SRB screen (Breast Cancer); assay type: cell-based; conditions: Homo sapiens, T47D, single dose 10 µM, 48 h, read-out: Growth inhibition percent (GI %)
MDA-MB-231/ATCC = assay: NCI-60 one-dose SRB screen (Breast Cancer); assay type: cell-based; conditions: Homo sapiens, single dose 10 µM, 48 h, read-out: Growth inhibition percent (GI %)
MCF-7 = assay: NCI-60 one-dose SRB screen (Breast Cancer); assay type: cell-based; conditions: Homo sapiens, MCF7, single dose 10 µM, 48 h, read-out: Growth inhibition percent (GI %)
HS 578T = assay: NCI-60 one-dose SRB screen (Breast Cancer); assay type: cell-based; conditions: Homo sapiens, single dose 10 µM, 48 h, read-out: Growth inhibition percent (GI %)
HOP-92 = assay: NCI-60 one-dose SRB screen (Non-Small Cell Lung Cancer); assay type: cell-based; conditions: Homo sapiens, single dose 10 µM, 48 h, read-out: Growth inhibition percent (GI %)
A549/ATCC = assay: as above; assay type: cell-based; conditions: Homo sapiens, single dose 10 µM, 48 h, read-out: Growth inhibition percent (GI %)
NCI-H522 = assay: as above; assay type: cell-based; conditions: Homo sapiens, single dose 10 µM, 48 h, read-out: Growth inhibition percent (GI %)
NCI-H322M = assay: as above; assay type: cell-based; conditions: Homo sapiens, single dose 10 µM, 48 h, read-out: Growth inhibition percent (GI %)
NCI-H460 = assay: as above; assay type: cell-based; conditions: Homo sapiens, single dose 10 µM, 48 h, read-out: Growth inhibition percent (GI %)
NCI-H23 = assay: as above; assay type: cell-based; conditions: Homo sapiens, single dose 10 µM, 48 h, read-out: Growth inhibition percent (GI %)
EKVX = assay: as above; assay type: cell-based; conditions: Homo sapiens, single dose 10 µM, 48 h, read-out: Growth inhibition percent (GI %)
HOP-62 = assay: as above; assay type: cell-based; conditions: Homo sapiens, single dose 10 µM, 48 h, read-out: Growth inhibition percent (GI %)
NCI-H226 = assay: as above; assay type: cell-based; conditions: Homo sapiens, single dose 10 µM, 48 h, read-out: Growth inhibition percent (GI %)
CCRF-CEM = assay: NCI-60 one-dose SRB screen (Leukemia); assay type: cell-based; conditions: Homo sapiens, single dose 10 µM, 48 h, read-out: Growth inhibition percent (GI %)
HL-60(TB) = assay: NCI-60 one-dose SRB screen (Leukemia); assay type: cell-based; conditions: Homo sapiens, single dose 10 µM, 48 h, read-out: Growth inhibition percent (GI %)
MOLT-4 = assay: NCI-60 one-dose SRB screen (Leukemia); assay type: cell-based; conditions: Homo sapiens, single dose 10 µM, 48 h, read-out: Growth inhibition percent (GI %)
SR = assay: NCI-60 one-dose SRB screen (Leukemia); assay type: cell-based; conditions: Homo sapiens, single dose 10 µM, 48 h, read-out: Growth inhibition percent (GI %)
K-562 = assay: NCI-60 one-dose SRB screen (Leukemia); assay type: cell-based; conditions: Homo sapiens, K562, single dose 10 µM, 48 h, read-out: Growth inhibition percent (GI %)
RPMI-8226 = assay: NCI-60 one-dose SRB screen (Leukemia); assay type: cell-based; conditions: Homo sapiens, single dose 10 µM, 48 h, read-out: Growth inhibition percent (GI %)
DU-145 = assay: NCI-60 one-dose SRB screen (Prostate Cancer); assay type: cell-based; conditions: Homo sapiens, single dose 10 µM, 48 h, read-out: Growth inhibition percent (GI %)
PC-3 = assay: NCI-60 one-dose SRB screen (Prostate Cancer); assay type: cell-based; conditions: Homo sapiens, single dose 10 µM, 48 h, read-out: Growth inhibition percent (GI %)
SK-MEL-5 = assay: NCI-60 one-dose SRB screen (Melanoma); assay type: cell-based; conditions: Homo sapiens, single dose 10 µM, 48 h, read-out: Growth inhibition percent (GI %)
MALME-3M = assay: NCI-60 one-dose SRB screen (Melanoma); assay type: cell-based; conditions: Homo sapiens, single dose 10 µM, 48 h, read-out: Growth inhibition percent (GI %)
M14 = assay: NCI-60 one-dose SRB screen (Melanoma); assay type: cell-based; conditions: Homo sapiens, single dose 10 µM, 48 h, read-out: Growth inhibition percent (GI %)
MDA-MB-435 = assay: NCI-60 one-dose SRB screen (Melanoma); assay type: cell-based; conditions: Homo sapiens, single dose 10 µM, 48 h, read-out: Growth inhibition percent (GI %)
SK-MEL-28 = assay: NCI-60 one-dose SRB screen (Melanoma); assay type: cell-based; conditions: Homo sapiens, single dose 10 µM, 48 h, read-out: Growth inhibition percent (GI %)
SK-MEL-2 = assay: NCI-60 one-dose SRB screen (Melanoma); assay type: cell-based; conditions: Homo sapiens, single dose 10 µM, 48 h, read-out: Growth inhibition percent (GI %)
LOX IMVI = assay: NCI-60 one-dose SRB screen (Melanoma); assay type: cell-based; conditions: Homo sapiens, single dose 10 µM, 48 h, read-out: Growth inhibition percent (GI %)
UACC-257 = assay: NCI-60 one-dose SRB screen (Melanoma); assay type: cell-based; conditions: Homo sapiens, single dose 10 µM, 48 h, read-out: Growth inhibition percent (GI %)
UACC-62 = assay: NCI-60 one-dose SRB screen (Melanoma); assay type: cell-based; conditions: Homo sapiens, single dose 10 µM, 48 h, read-out: Growth inhibition percent (GI %)
hCA IX = hCA IX (Homo sapiens, UniProt Q16790); assay: CA inhibitory activity, spectrophotometric p-NPA assay; assay type: biochemical; conditions: p-NPA substrate, pH 7.5, 25 °C, triplicate; read-out: IC50 (µM) ± SD hCA IX
Experimental: The software used to calculate CA IC50 along with statistical analysis of the results is GraphPad Prism 9.00. Results were estimated by using one-way ANOVA and the Bonferroni’s multiple comparisons posthoc test was performed (P < 0.05) [46]
Carbonic anhydrase inhibitory activity:
The spectrophotometric assay was conducted in HEPES-Tris buffer, NaCl of pH 7.5 (20mM) at 25◦C. Each inhibitory well-consisted of 50 μL of assay buffer solution, 20 μL of hCA enzyme solution (20 ng/μL in Assay Buffer), and 50 μL of test compound in HPLC grade DMSO (maintain 10% of the final concentration). The mixture solution was
Substrate p-nitrophenyl acetate (p-NPA) (0.7mM) was prepared in HPLC grade methanol and the reaction was started by adding 20 μL to a well in a 96-well-plate. The amount of product formed was measured for 30 min continuously at 1 min intervals at 400 nm in a 96-well-plate using xMARK microplate spectrophotometer, Bio-Rad (USA). The activity of the controlled compound was taken as 100%. All experiments were carried out in triplicates of each used concentration, and results are represented as a

OVCAR-5 = assay: NCI-60 one-dose SRB screen (Ovarian cancer); assay type: cell-based; conditions: Homo sapiens, single dose 10 µM, 48 h, read-out: Growth inhibition percent (GI %)
IGROV1 = assay: NCI-60 one-dose SRB screen (Ovarian cancer); assay type: cell-based; conditions: Homo sapiens, IGROV-1, single dose 10 µM, 48 h, read-out: Growth inhibition percent (GI %)
OVCAR-3 = assay: NCI-60 one-dose SRB screen (Ovarian cancer); assay type: cell-based; conditions: Homo sapiens, single dose 10 µM, 48 h, read-out: Growth inhibition percent (GI %)
NCI/ADR-RES = assay: NCI-60 one-dose SRB screen (Ovarian cancer); assay type: cell-based; conditions: Homo sapiens, single dose 10 µM, 48 h, read-out: Growth inhibition percent (GI %)
SK-OV-3 = assay: NCI-60 one-dose SRB screen (Ovarian cancer); assay type: cell-based; conditions: Homo sapiens, single dose 10 µM, 48 h, read-out: Growth inhibition percent (GI %)
OVCAR-4 = assay: NCI-60 one-dose SRB screen (Ovarian cancer); assay type: cell-based; conditions: Homo sapiens, single dose 10 µM, 48 h, read-out: Growth inhibition percent (GI %)
OVCAR-8 = assay: NCI-60 one-dose SRB screen (Ovarian cancer); assay type: cell-based; conditions: Homo sapiens, single dose 10 µM, 48 h, read-out: Growth inhibition percent (GI %)

Question: What does the source list for `CCOC(=O)c1ccc(NC(=O)COC(=O)c2cn(-c3ccc(S(N)(=O)=O)cc3)nc2-c2ccc(Br)cc2)cc1` [Compound 5d, 2-[(4-(Ethoxycarbonyl)phenyl)amino]-2-oxoethyl 3-(4-bromophenyl)-1-(4-sulfamoylphenyl)-1H-pyrazole-4-carboxylate]?
Answer: inhibition at 10 µM (COLO 205): 61.2%; inhibition at 10 µM (HT29): 88.3%; inhibition at 10 µM (HCC-2998): 54.3%; inhibition at 10 µM (KM12): 76.7%; inhibition at 10 µM (SW-620): 50.6%; inhibition at 10 µM (HCT-15): 76.4%; inhibition at 10 µM (HCT-116): 73.6%; inhibition at 10 µM (T-47D): 60.2%; inhibition at 10 µM (MDA-MB-231/ATCC): 43.7%; inhibition at 10 µM (MCF-7): 91%; inhibition at 10 µM (HS 578T): 51.3%; inhibition at 10 µM (HOP-92): 72.1%; inhibition at 10 µM (A549/ATCC): 62.9%; inhibition at 10 µM (NCI-H522): 64.9%; inhibition at 10 µM (NCI-H322M): 21.2%; inhibition at 10 µM (NCI-H460): 65.7%; inhibition at 10 µM (NCI-H23): 49.4%; inhibition at 10 µM (EKVX): 62.5%; inhibition at 10 µM (HOP-62): 26.2%; inhibition at 10 µM (NCI-H226): 48.3%; inhibition at 10 µM (CCRF-CEM): 85.8%; inhibition at 10 µM (HL-60(TB)): 89.4%; inhibition at 10 µM (MOLT-4): 94%; inhibition at 10 µM (SR): 80.1%; inhibition at 10 µM (K-562): 80.4%; inhibition at 10 µM (RPMI-8226): 80.3%; inhibition at 10 µM (DU-145): 45.8%; inhibition at 10 µM (PC-3): 78.8%; inhibition at 10 µM (SK-MEL-5): 36.3%; inhibition at 10 µM (MALME-3M): 46.1%; inhibition at 10 µM (M14): 73.7%; inhibition at 10 µM (MDA-MB-435): 61.2%; inhibition at 10 µM (SK-MEL-28): 55.6%; inhibition at 10 µM (SK-MEL-2): 49.1%; inhibition at 10 µM (LOX IMVI): 72.9%; inhibition at 10 µM (UACC-257): 38.3%; inhibition at 10 µM (UACC-62): 58.7%; IC50 (hCA IX): 0.631 ± 0.029 µM; inhibition at 10 µM (OVCAR-5): 38%; inhibition at 10 µM (IGROV1): 31.7%; inhibition at 10 µM (OVCAR-3): 62.6%; inhibition at 10 µM (NCI/ADR-RES): 28.2%; inhibition at 10 µM (SK-OV-3): 29%; inhibition at 10 µM (OVCAR-4): 64%; inhibition at 10 µM (OVCAR-8): 13.3%
